# Measured values: patent US9062124B2, “GIP-based mixed agonists for treatment of metabolic disorders and obesity” (priority 2008, dated 2015)
# Where a SMILES comes first, the peptide text is derived from it. Bridges are numbered along the chain shown (N, C = ends). Where no end group is shown, it is not given here. [ ]: non-standard residue; d: D form. PEG 40 kDa = PEG (40 kDa) covalently attached to Cys; Aib = CC(C)(N)C(=O)O
# Legend:
# Assay type in all cases: cell-based
# GLP-1 receptor = biological target: T1, GLP-1 receptor (Homo sapiens, UniProt P43220); assay: cAMP synthesis functional assay (firefly luciferase reporter in HEK293 cells), GLP-1 receptor; conditions: for GLP-1 Receptor relative activity: Table 1, relative to the native hormone of the indicated receptor
# T1 construct: expressed in transfected cells; host or cells: HEK293
# T1 sequence (P43220 24-463, species assumed): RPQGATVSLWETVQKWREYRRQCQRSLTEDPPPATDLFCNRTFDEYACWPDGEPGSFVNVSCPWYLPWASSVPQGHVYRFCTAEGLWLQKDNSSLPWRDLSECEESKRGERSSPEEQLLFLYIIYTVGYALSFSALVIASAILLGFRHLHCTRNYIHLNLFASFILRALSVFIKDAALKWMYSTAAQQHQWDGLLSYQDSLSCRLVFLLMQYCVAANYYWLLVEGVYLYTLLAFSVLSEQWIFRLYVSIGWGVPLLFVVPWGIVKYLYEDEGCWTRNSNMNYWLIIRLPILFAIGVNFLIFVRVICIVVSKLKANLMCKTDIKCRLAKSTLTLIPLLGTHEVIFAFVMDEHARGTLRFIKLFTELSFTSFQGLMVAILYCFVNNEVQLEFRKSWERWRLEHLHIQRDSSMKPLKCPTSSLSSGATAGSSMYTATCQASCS
# glucagon receptor = biological target: T2, glucagon receptor (Homo sapiens, UniProt P47871); assay: cAMP synthesis functional assay (firefly luciferase reporter in HEK293 cells), glucagon receptor; conditions: for Glucagon Receptor relative activity: relative to the native hormone of the indicated receptor
# T2 construct: expressed in transfected cells; host or cells: HEK293
# T2 sequence (P47871 26-477): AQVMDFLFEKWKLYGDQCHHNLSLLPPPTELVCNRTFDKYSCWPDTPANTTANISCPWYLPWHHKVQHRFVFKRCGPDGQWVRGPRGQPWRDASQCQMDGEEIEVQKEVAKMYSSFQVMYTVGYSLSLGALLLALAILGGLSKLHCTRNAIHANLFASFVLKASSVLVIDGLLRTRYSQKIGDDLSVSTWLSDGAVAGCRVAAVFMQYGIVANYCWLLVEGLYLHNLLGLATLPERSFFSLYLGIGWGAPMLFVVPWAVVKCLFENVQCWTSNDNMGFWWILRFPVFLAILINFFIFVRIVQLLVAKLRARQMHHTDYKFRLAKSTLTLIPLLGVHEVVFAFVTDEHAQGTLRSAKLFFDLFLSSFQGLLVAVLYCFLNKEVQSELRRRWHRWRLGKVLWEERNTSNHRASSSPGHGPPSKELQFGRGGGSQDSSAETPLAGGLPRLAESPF
# GIP receptor = biological target: T3, GIP receptor (Homo sapiens, UniProt P48546); assay: cAMP synthesis functional assay (firefly luciferase reporter in HEK293 cells), GIP receptor; conditions: Table 1; for GIP Receptor relative activity: relative to the native hormone of the indicated receptor
# T3 construct: expressed in transfected cells; host or cells: HEK293
# T3 sequence (P48546 22-466): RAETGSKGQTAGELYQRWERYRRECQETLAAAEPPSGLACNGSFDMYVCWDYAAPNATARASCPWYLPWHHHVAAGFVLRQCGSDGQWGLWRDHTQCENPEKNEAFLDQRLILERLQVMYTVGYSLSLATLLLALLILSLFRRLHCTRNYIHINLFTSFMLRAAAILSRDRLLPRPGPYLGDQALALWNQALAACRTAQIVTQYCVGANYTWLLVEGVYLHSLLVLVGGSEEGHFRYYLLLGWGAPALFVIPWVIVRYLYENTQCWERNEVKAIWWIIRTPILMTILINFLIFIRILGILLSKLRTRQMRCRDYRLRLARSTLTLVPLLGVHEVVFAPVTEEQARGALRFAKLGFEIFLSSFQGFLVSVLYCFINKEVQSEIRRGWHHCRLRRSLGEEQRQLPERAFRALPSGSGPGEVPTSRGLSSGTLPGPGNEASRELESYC
# [1] = Glucagon Receptor EC50, nM, Table 1
compound,measurement,setting,value
CC[C@H](C)[C@H](NC(=O)[C@H](Cc1ccccc1)NC(=O)[C@H](CCC(=O)O)NC(=O)[C@@H]1CCCCNC(=O)CC[C@H](NC(=O)[C@H](CC(=O)O)NC(=O)[C@H](CC(C)C)NC(=O)[C@H](Cc2ccc(O)cc2)NC(=O)[C@H](CCCCN)NC(=O)[C@H](CO)NC(=O)[C@H](Cc2ccc(O)cc2)NC(=O)[C@H](CC(=O)O)NC(=O)[C@H](CO)NC(=O)[C@@H](NC(=O)[C@H](Cc2ccccc2)NC(=O)[C@@H](NC(=O)CNC(=O)[C@H](CCC(N)=O)NC(=O)[C@H](CO)NC(=O)[C@@H](N)Cc2c[nH]cn2)[C@@H](C)O)[C@@H](C)O)C(=O)N[C@@H]([C@@H](C)CC)C(=O)N[C@@H](Cc2c[nH]cn2)C(=O)N[C@@H](CCC(N)=O)C(=O)N1)C(=O)N[C@@H](C)C(=O)N[C@@H](Cc1c[nH]c2ccccc12)C(=O)N[C@@H](CC(C)C)C(=O)N[C@@H](CCSC)C(=O)N[C@@H](CC(N)=O)C(=O)N[C@H](C(N)=O)[C@@H](C)O [mt-61],GLP-1 Receptor relative activity,GLP-1 receptor,22.22%
same,EC50,glucagon receptor; [1],0.11 nM
same,Glucagon Receptor relative activity,glucagon receptor; Table 1,172.73%
same,GIP Receptor relative activity,GIP receptor,0.83%
CC[C@H](C)[C@H](NC(=O)[C@H](Cc1ccccc1)NC(=O)[C@H](CCC(=O)O)NC(=O)[C@@H]1CCCCNC(=O)CC[C@H](NC(=O)[C@H](CC(=O)O)NC(=O)[C@H](CC(C)C)NC(=O)[C@H](Cc2ccc(O)cc2)NC(=O)[C@@H](NC(=O)[C@H](CO)NC(=O)[C@H](Cc2ccc(O)cc2)NC(=O)[C@H](CC(=O)O)NC(=O)[C@H](CO)NC(=O)[C@@H](NC(=O)[C@H](Cc2ccccc2)NC(=O)[C@@H](NC(=O)CNC(=O)[C@H](CCC(N)=O)NC(=O)[C@H](CO)NC(=O)[C@@H](N)Cc2c[nH]cn2)[C@@H](C)O)[C@@H](C)O)[C@@H](C)CC)C(=O)N[C@@H]([C@@H](C)CC)C(=O)N[C@@H](Cc2c[nH]cn2)C(=O)N[C@@H](CCC(N)=O)C(=O)N1)C(=O)N[C@@H](C)C(=O)N[C@@H](Cc1c[nH]c2ccccc12)C(=O)N[C@@H](CC(C)C)C(=O)N[C@@H](CCSC)C(=O)N[C@@H](CC(N)=O)C(=O)N[C@H](C(N)=O)[C@@H](C)O [mt-62] (H-HSQGTFTSDYSIYLDEIHQKEFIAWLMNT-NH2; lactam 16-20; N-terminus assumed),GLP-1 Receptor relative activity,GLP-1 receptor,40.00%
same,EC50,glucagon receptor; [1],0.45 nM
same,Glucagon Receptor relative activity,glucagon receptor; Table 1,42.22%
same,GIP Receptor relative activity,GIP receptor,1.60%
CC[C@H](C)[C@H](NC(=O)[C@H](Cc1ccccc1)NC(=O)[C@H](CCC(=O)O)NC(=O)[C@@H]1CCC(=O)NCCCC[C@H](NC(=O)[C@H](CC(=O)O)NC(=O)[C@H](CC(C)C)NC(=O)[C@H](Cc2ccc(O)cc2)NC(=O)[C@H](CCCCN)NC(=O)[C@H](CO)NC(=O)[C@H](Cc2ccc(O)cc2)NC(=O)[C@H](CC(=O)O)NC(=O)[C@H](CO)NC(=O)[C@@H](NC(=O)[C@H](Cc2ccccc2)NC(=O)[C@@H](NC(=O)CNC(=O)[C@H](CCC(N)=O)NC(=O)[C@H](CO)NC(=O)[C@@H](N)Cc2c[nH]cn2)[C@@H](C)O)[C@@H](C)O)C(=O)N[C@@H]([C@@H](C)CC)C(=O)N[C@@H](Cc2c[nH]cn2)C(=O)N[C@@H](CCC(N)=O)C(=O)N1)C(=O)N[C@@H](C)C(=O)N[C@@H](Cc1c[nH]c2ccccc12)C(=O)N[C@@H](CC(C)C)C(=O)N[C@@H](CCSC)C(=O)N[C@@H](CC(N)=O)C(=O)N[C@H](C(N)=O)[C@@H](C)O [mt-69] (H-HSQGTFTSDYSKYLDKIHQEEFIAWLMNT-NH2; lactam 16-20; N-terminus assumed),GLP-1 Receptor relative activity,GLP-1 receptor,12.20%
same,EC50,glucagon receptor; [1],0.16 nM
same,Glucagon Receptor relative activity,glucagon receptor; Table 1,162.50%
same,EC50,"GIP receptor; GIP Receptor EC50, nM",14.6 nM
same,GIP Receptor relative activity,GIP receptor,0.57%
CC[C@H](C)[C@H](NC(=O)[C@H](CO)NC(=O)[C@H](Cc1ccc(O)cc1)NC(=O)[C@H](CC(=O)O)NC(=O)[C@H](CO)NC(=O)[C@@H](NC(=O)[C@H](Cc1ccccc1)NC(=O)[C@@H](NC(=O)CNC(=O)[C@H](CCC(=O)O)NC(=O)[C@H](C)NC(=O)[C@@H](N)Cc1c[nH]cn1)[C@@H](C)O)[C@@H](C)CC)C(=O)N[C@@H](C)C(=O)N[C@@H](CCSC)C(=O)N[C@@H](CC(=O)O)C(=O)N[C@H]1CCC(=O)NCCCC[C@@H](C(=O)N[C@@H](CC(=O)O)C(=O)N[C@@H](Cc2ccccc2)C(=O)N[C@H](C(=O)N[C@@H](CC(N)=O)C(=O)N[C@@H](Cc2c[nH]c3ccccc23)C(=O)N[C@@H](CC(C)C)C(=O)N[C@@H](CC(C)C)C(=O)N[C@@H](C)C(=O)N[C@@H](CCC(N)=O)C(N)=O)C(C)C)NC(=O)[C@H](CCC(N)=O)NC(=O)[C@H](Cc2c[nH]cn2)NC(=O)[C@H]([C@@H](C)CC)NC1=O [mt-95] (H-HAEGTFISDYSIAMDEIHQKDFVNWLLAQ-NH2; lactam 16-20; N-terminus assumed),GLP-1 Receptor relative activity,GLP-1 receptor,0.08%
same,Glucagon Receptor relative activity,glucagon receptor; Table 1,0.04%
same,GIP Receptor relative activity,GIP receptor,10.54%
CC[C@H](C)[C@H](NC(=O)[C@H](CO)NC(=O)[C@H](Cc1ccc(O)cc1)NC(=O)[C@H](CC(=O)O)NC(=O)[C@H](CO)NC(=O)[C@@H](NC(=O)[C@H](Cc1ccccc1)NC(=O)[C@@H](NC(=O)CNC(=O)[C@H](CCC(=O)O)NC(=O)[C@H](C)NC(=O)[C@@H](N)Cc1ccc(O)cc1)[C@@H](C)O)[C@@H](C)CC)C(=O)N[C@@H](C)C(=O)N[C@@H](CCSC)C(=O)N[C@@H](CC(=O)O)C(=O)N[C@H]1CCC(=O)NCCCC[C@@H](C(=O)N[C@@H](CC(=O)O)C(=O)N[C@@H](Cc2ccccc2)C(=O)N[C@H](C(=O)N[C@@H](CC(N)=O)C(=O)N[C@@H](Cc2c[nH]c3ccccc23)C(=O)N[C@@H](CC(C)C)C(=O)N[C@@H](CC(C)C)C(=O)N[C@@H](C)C(=O)N[C@@H](CCC(N)=O)C(N)=O)C(C)C)NC(=O)[C@H](CCC(N)=O)NC(=O)[C@H](Cc2c[nH]cn2)NC(=O)[C@H]([C@@H](C)CC)NC1=O [mt-96] (H-YAEGTFISDYSIAMDEIHQKDFVNWLLAQ-NH2; lactam 16-20; N-terminus assumed),GLP-1 Receptor relative activity,GLP-1 receptor,0.04%
same,Glucagon Receptor relative activity,glucagon receptor; Table 1,0.29%
same,GIP Receptor relative activity,GIP receptor,84.48%
CC[C@H](C)[C@H](NC(=O)[C@H](CO)NC(=O)[C@H](Cc1ccc(O)cc1)NC(=O)[C@H](CC(=O)O)NC(=O)[C@H](CO)NC(=O)[C@@H](NC(=O)[C@H](Cc1ccccc1)NC(=O)[C@@H](NC(=O)CNC(=O)[C@H](CCC(=O)O)NC(=O)[C@H](C)NC(=O)[C@@H](N)Cc1ccc(O)cc1)[C@@H](C)O)[C@@H](C)O)C(=O)N[C@@H](Cc1ccc(O)cc1)C(=O)N[C@@H](CCSC)C(=O)N[C@@H](CC(=O)O)C(=O)N[C@H]1CCC(=O)NCCCC[C@@H](C(=O)N[C@@H](CCC(=O)O)C(=O)N[C@@H](Cc2ccccc2)C(=O)N[C@H](C(=O)N[C@@H](CC(N)=O)C(=O)N[C@@H](Cc2c[nH]c3ccccc23)C(=O)N[C@@H](CC(C)C)C(=O)N[C@@H](CC(C)C)C(=O)N[C@@H](C)C(=O)NCC(=O)NCC(=O)N2CCC[C@H]2C(=O)N[C@@H](CO)C(=O)N[C@@H](CO)C(=O)NCC(=O)N[C@@H](C)C(=O)N2CCC[C@H]2C(=O)N2CCC[C@H]2C(=O)N2CCC[C@H]2C(=O)N[C@@H](CO)C(N)=O)C(C)C)NC(=O)[C@H](C)NC(=O)[C@H](C)NC(=O)[C@H](CCC(N)=O)NC1=O [mt-142] (H-YAEGTFTSDYSIYMDEQAAKEFVNWLLAGGPSSGAPPPS-NH2; lactam 16-20; N-terminus assumed),GLP-1 Receptor relative activity,GLP-1 receptor,163.41%
same,GIP Receptor relative activity,GIP receptor,36.36%
CC[C@H](C)[C@H](NC(=O)[C@H](CO)NC(=O)[C@H](Cc1ccc(O)cc1)NC(=O)[C@H](CC(=O)O)NC(=O)[C@H](CO)NC(=O)[C@@H](NC(=O)[C@H](Cc1ccccc1)NC(=O)[C@@H](NC(=O)CNC(=O)[C@H](CCC(=O)O)NC(=O)C(C)(C)NC(=O)[C@@H](N)Cc1ccc(O)cc1)[C@@H](C)O)[C@@H](C)O)C(=O)N[C@@H](Cc1ccc(O)cc1)C(=O)N[C@@H](CC(C)C)C(=O)N[C@@H](CC(=O)O)C(=O)N[C@@H](CCCCN)C(=O)N[C@@H](CCC(N)=O)C(=O)N[C@@H](C)C(=O)N[C@@H](C)C(=O)NC(C)(C)C(=O)N[C@@H](CCC(=O)O)C(=O)N[C@@H](Cc1ccccc1)C(=O)N[C@H](C(=O)N[C@@H](CCCCN)C(=O)N[C@@H](Cc1c[nH]c2ccccc12)C(=O)N[C@@H](CC(C)C)C(=O)N[C@@H](CC(C)C)C(=O)N[C@@H](C)C(=O)NCC(=O)NCC(=O)N1CCC[C@H]1C(=O)N[C@@H](CO)C(=O)N[C@@H](CO)C(=O)NCC(=O)N[C@@H](C)C(=O)N1CCC[C@H]1C(=O)N1CCC[C@H]1C(=O)N1CCC[C@H]1C(=O)N[C@@H](CO)C(N)=O)C(C)C [mt-268],EC50,"GLP-1 receptor; GLP-1 Receptor EC50, cAMP luciferase reporter assay as in Example 16",0.0155 nM
same,EC50,"glucagon receptor; Glucagon Receptor EC50, cAMP luciferase reporter assay as in Example 16",6.5 nM
HSQGTFTSDYSKYLDEIHQKEFIAWLLAQ-NH2 [mt-66],GLP-1 Receptor relative activity,GLP-1 receptor,38.46%
same,Glucagon Receptor relative activity,glucagon receptor; Table 1,13.00%
HSQGTFTSDYSKYLDKIHQEEFIAWLMNT-NH2 [mt-68],GLP-1 Receptor relative activity,GLP-1 receptor,6.10%
same,EC50,glucagon receptor; [1],1.97 nM
same,Glucagon Receptor relative activity,glucagon receptor; Table 1,13.20%
YAEGTFISDYSIAMDKIHQQDFVNWLLAQ-NH2 [mt-106],GLP-1 Receptor relative activity,GLP-1 receptor,0.02%
same,Glucagon Receptor relative activity,glucagon receptor; Table 1,0.11%
YAPGTFISDYSIAMDKIHQQDFVCWLLAQKGKKNWLKHNITQ-NH2 [mt-104],GIP Receptor relative activity,GIP receptor,0.22%
YAPGTFISDYSIAMDKIHQQDFVNWLLAQKGKKNWLKHNITQ-NH2 [mt-101],GIP Receptor relative activity,GIP receptor,0.06%
"mt-208: glucagon analog peptide, C-terminal amide (Y[Aib]EGTFTSDYSIYLDEQAAKEFVNWLLAGKGKKNWLKHNITQC(PEG 40 kDa)-NH2; lactam 16-20)",GLP-1 Receptor relative activity,GLP-1 receptor,11.83%
same,GIP Receptor relative activity,GIP receptor,4.79%
